{"source": "patent US12215123B2", "about": "“Cordycepin-based derivatized compound with anti-tumor effect” (NANJING TECH UNIVERSITY, priority 2022, dated 2025)", "key": {"[1]": {"system": "IDB ovarian cancer cells", "test": "Mouse transplanted ovarian cancer model", "format": "in vivo, C57BL/6j nude mice", "conditions": "ovarian cancer transplanted mice, 15 days, 500 ug/time/animal intragastric", "method": "(§1) The feeding of the mouse model in the drug evaluation follows that: mice are fed and treated in a laminar flow cabinet, with 5 nude mice in each cage, drinking water and feedstuffs are added once every 3 days, and paddings are replaced once a week; a number of mice kept in each cage is no more than 5, the mice in separate cages are kept in groups as far as possible, and the mice should not be kept in a single cage; the animal management must conform to the relevant national standards on animal feeding management, and the behavioral needs of animals should be concerned at the same time to avoid unnecessary stress; the normal physiological and behavioral needs of animals, such as defecation, urination, constant body temperature maintenance, normal activities, posture adjustment and reproduction are met; good ventilation and dry animals are kept; the animals can access to drinking water and food at will, and supplementation, replacement and cleaning operations are easily carried out; a solid and safe environment is provided to avoid accidents of animals, such as escaping or limb trapping in a gap; the animals are avoided from being damaged by sharp edges or protrusions; and the animals are not disturbed during observation.\nA mouse transplanted ovarian cancer model was established and a drug was evaluated. […]"}, "[2]": {"system": "Hep-1-6 liver cancer cells", "test": "Mouse transplanted liver cancer model", "format": "in vivo, C57BL/6j nude mice", "conditions": "Hep-1-6 transplanted mice, intragastric 500 ug/time/animal every other day, 14 days; blank 900 mm^3", "method": "as §1\nA mouse transplanted liver cancer model was established and a drug was evaluated. […]"}}}
{"smiles": "CC(C)OC(=O)C(C)NP(=O)(COC[C@@H]1CC(O)[C@H](n2cnc3c(NC(=O)c4ccncc4)ncnc32)O1)Oc1ccccc1", "note": "(some centres unmarked) [Compound 24, isopropyl((((4-hydroxy-5-(6-(isonicotinamide)-9H-purin-9-yl)tetrahydrofuran-2-yl)methoxy)methyl)(phenoxy)phosphoryl)alanine ester]", "values": [{"measurement": "tumor size reduced by (times) versus control", "setting": "[1]", "value": "about 2 times"}, {"measurement": "tumor volume", "setting": "[2]", "value": "< 100", "unit": "mm^3"}]}
